Laboratory results published in patent US7166688B1, “Chelation compositions” (LidoChem, Inc., priority 2000, dated 2007).

Assays:
Soybean = assay: Foliar applied IDS chelated minerals, tissue analysis, soybeans; assay type: in vivo
Procedure: (§1) An experimental trial was completed testing the efficacy of the Iminodisuccinates (IDS) of this invention on five different crops. Below is the protocol and tissue analysis for both soil and foliar applied iminodisuccinate chelated mineral salts.
(§2) A stock solution for foliar application was prepared by blending 6000 ml of water with T-DAT 09, (Harcross Chemical Company, USA) a surfactant, added to spray mix at 2 drops per liter. • 1). 5 ml of 9% zinc was added to 1 liter of stock solution. • 2). 5 ml of 5% copper was added to 1 liter of stock solution. • 3). 5 ml of 5% manganese was added to 1 liter of stock solution. • 4). 5 ml of 5% Iron was added to 1 liter of stock solution. • 5). 4 ml of 9% zinc, 1 ml of 5% copper, 1 ml of 5% manganese, and 1 ml of 5% iron was added to 1 liter of stock solution. • 6). Stock solution without further addition.
(§3) All plants were sprayed until wet. Harvested material was placed in an oven for one day and sent to the lab for tissue analysis. Harvesting occurred thirty days after planting and some plants had not grown enough to get complete lab results reported. The harvested corn plants were cut at the whirl to insure only new leaves would be tested. The soybeans were clipped above the cotyledon. The alfalfa and clover were removed from the soil and the roots were removed. The wheat was cut at the tillering node.

Clover [1] = assay: Foliar applied IDS chelated minerals, tissue analysis, clover; assay type: in vivo
Procedure: as §1, §2, §3

Corn [2] = assay: Foliar applied IDS chelated minerals, tissue analysis, corn; assay type: in vivo
Procedure: as §1, §2, §3

Clover [3] = assay: Soil applied IDS chelated minerals with 10-34-0, tissue analysis, clover; assay type: in vivo
Procedure: as §1
(§4) A). The control pots were watered without any further treatments.
(§5) B). An ammonium polyphosphate stock solution was prepared by adding 50 ml of the 10-34-0 to 4000 ml of water. Treated plants received 100 ml of the stock solution.
(§6) (C). The Zinc stock solution was prepared by blending 10 ml of IDS chelated 9% Zinc to a blend of 50 ml of 10-34-0 with 4000 ml of water. Treated plants received 100 ml of the zinc stock solution.
(§7) (D). The mixture of IDS chelated micronutrients was prepared by adding 4 ml of 9% Zinc, 1 ml of 5% Copper, 1 ml of 5% manganese, and 1 ml of 5% Iron. This mixture was then blended with 4000 ml of water and 50 ml of 10-34-0.
as §3

Corn [4] = assay: Soil applied IDS chelated minerals with 10-34-0, tissue analysis, corn; assay type: in vivo
Procedure: as §1, §4, §5, §6, §7, §3

Wheat [5] = assay: Soil applied IDS chelated minerals with 10-34-0, tissue analysis, wheat; assay type: in vivo
Procedure: as §1, §4, §5, §6, §7, §3

Wheat [6] = assay: Foliar applied IDS chelated minerals, tissue analysis, wheat; assay type: in vivo
Procedure: as §1, §2, §3

[7] = Iron chelation, clear solution / precipitate test; assay type: physicochemical; conditions: for appearance of solution / precipitates: 500 ml water, 10 ml 1.8 M ferric nitrate, pH 10, 10 grams potassium phosphate
Procedure: A five percent chelated iron solution was prepared by blending 18 ml of water with 100 grams of a (10% Fe) ferric nitrate solution. Once in solution, 82 grams of the compound produced in Example 10 was added.
In 25 ml of water, 20 ml of a 1.8M ferric nitrate was added. Once in solution, 30 ml of the diethanolsuccinamide amino ethanol solution produced in Example 17 was added and the pH of the blend was adjusted to 9.2. Then 1 gram of potassium phosphate was added to the mixture.
Five drops of 1.8 M ferric nitrate were added to one liter of water and mechanically blended. Then 10 grams of potassium phosphate were added to the solution and allowed to form insoluble potassium salts.
In 400 ml of water, 20 ml of a 10% ferric nitrate solution were added, and 20 ml of the product from example 25 were added. With mechanical stirring, 40 grams of monopotassium phosphate was added the mix. The pH of the solution was then adjusted to 2 with HCl. The pH of the solution was then gradually raised with the addition of base to a pH of 10.
In 400 ml of water, 10 ml of 1.8 M ferric nitrate solution were added and 20 ml of the product from example 28 were added. With mechanical stirring, 20 grams of monopotassium phosphate was added to the mix. The pH of the solution was then adjusted to 2 with HCL. The pH of the solution was then gradually raised with the addition of Monoethanolamine to a pH of 10.
To a beaker containing one liter of water, 20 grams of potassium phosphate were added to form a clear solution.
Thirty grams of 1.8 M ferric nitrate were added to 100 ml of water. The pH of the solution was lowered to 4 with phosphorous acid, and then 5 grams of Potassium phosphate were then added to the blend. Later 30 ml of the solution produced in example 29 was added.
One hundred ml of the solution prepared in Example 41 was added to 500 ml of water and blended. 10 ml of 1.8-M ferric nitrate was then added to the mixture. […] The potassium salt of maleic acid was tested as a chelating agent.
In a separate flask 20 grams of maleic anhydride were blended in 500 ml of water. Potassium hydroxide was then added to the blend to raise the pH to 10. Later ten ml of 1.8M ferric nitrate was added to the mix and 10 grams of potassium phosphate was also blended in. […] The contents of the flask were then blended again while MEA was added to the mix.

pepper plants = assay: IDS versus EDTA chelates applied to the soil of pepper plants, tissue analysis; assay type: in vivo
Procedure: Below is the protocol and tissue analysis for the soil-applied iminodisuccinate and EDTA chelated mineral salts. Treatments: Control—no fertilizer 15-30-15 (fertilizer) alone 15-30-15 plus Cu IDS […] 15-30-15 plus Mn IDS […] 15-30-15 plus Zn IDS […] The standard fertilizer contained no micronutrients. Fertilizer was Hyponex 15-30-15. Each treatment was replicated 3 times. Soil treatments were applied as 50 ml per of the dilute blend of this invention. The pepper plants were transplanted into 1-gallon containers and grown until a suitable size. Plants were treated with the soil-applied chelate. Tissue samples were taken 30 days after the soil treatment had been applied. […] One gallon of fertilizer was poured over three replications of each set in the trial.

[Mn+2]
manganese in plant tissue, TREATED (Soybean; harvested 30 days after planting, control 230): 544 parts per million
manganese in plant tissue, CHANGE (Soybean; treated minus control 230): 314 parts per million
manganese in plant tissue, % change (Soybean; versus control 230): 137%
manganese in plant tissue, TREATED (Clover [1]; harvested 30 days after planting, control 168): 510 parts per million
manganese in plant tissue, CHANGE (Clover [1]; treated minus control 168): 342 parts per million
manganese in plant tissue, TREATED (Corn [2]; harvested 30 days after planting, control 99.1): 310 parts per million
manganese in plant tissue, CHANGE (Corn [2]; treated minus control 99.1): 210.9 parts per million
manganese in plant tissue, % change (Corn [2]; versus control 99.1): 213%
manganese in plant tissue, TREATED (Clover [3]; soil applied with 10-34-0, harvested 30 days after planting, control 154): 98.4
manganese in plant tissue, TREATED (Corn [4]; soil applied with 10-34-0, harvested 30 days after planting, control 128): 80.1
manganese in plant tissue, TREATED (Wheat [5]; soil applied with 10-34-0, harvested 30 days after planting, control 71.8): 76.2
manganese in plant tissue, CHANGE (Wheat [5]; soil applied, treated minus control 71.8): 4.4
manganese in plant tissue, % change (Wheat [5]; soil applied, versus control 71.8): 6%
manganese in plant tissue, TREATED (Wheat [6]; harvested 30 days after planting, control 72.1): 379 parts per million
manganese in plant tissue, CHANGE (Wheat [6]; treated minus control 72.1): 306.9 parts per million

O=C([O-])CC(C(=O)[O-])N(CCO)C(CC(=O)[O-])C(=O)[O-].[K+].[K+].[K+].[K+] (stereo not drawn) [Example 41, N,N-disuccinic-amino-ethanol tetra potassium salt]
appearance of solution / precipitates [7]: orange-red clear solution without precipitates

NCCO [MEA, monoethanolamine, reference compound]
redissolution of the precipitate on adding MEA ([7]; MEA added to the potassium maleate / ferric nitrate / potassium phosphate mix at pH 10): The precipitate never went back into solution

O=C([O-])/C=C\C(=O)[O-].[K+].[K+] [potassium salt of maleic acid, reference compound]
appearance of solution / precipitates [7]: a rust colored solid precipitated

COPPER
copper in plant tissue, TREATED (Soybean; harvested 30 days after planting, control 4.74): 937 parts per million
copper in plant tissue, CHANGE (Soybean; treated minus control 4.74): 932.26 parts per million
copper in plant tissue, TREATED (Clover [1]; harvested 30 days after planting, control 9.64): 227 parts per million
copper in plant tissue, CHANGE (Clover [1]; treated minus control 9.64): 217.36 parts per million
copper in plant tissue, TREATED (Corn [2]; harvested 30 days after planting, control 5.2): 300 parts per million
copper in plant tissue, CHANGE (Corn [2]; treated minus control 5.2): 294.8 parts per million
copper in plant tissue, % change (Corn [2]; versus control 5.2): 5669%
copper in plant tissue, TREATED (Clover [3]; soil applied with 10-34-0, harvested 30 days after planting, control 8.91): 20.2
copper in plant tissue, CHANGE (Clover [3]; soil applied, treated minus control 8.91): 11.29
copper in plant tissue, % change (Clover [3]; soil applied, versus control 8.91): 127%
copper in plant tissue, TREATED (Corn [4]; soil applied with 10-34-0, harvested 30 days after planting, control 5.43): 11.7
copper in plant tissue, CHANGE (Corn [4]; soil applied, treated minus control 5.43): 6.27
copper in plant tissue, % (Corn [4]; soil applied, versus control 5.43): 115%
copper in plant tissue, TREATED (Wheat [5]; soil applied with 10-34-0, harvested 30 days after planting, control 6.79): 12.1
copper in plant tissue, CHANGE (Wheat [5]; soil applied, treated minus control 6.79): 5.31
copper in plant tissue, % change (Wheat [5]; soil applied, versus control 6.79): 78%
copper in plant tissue, TREATED (Wheat [6]; harvested 30 days after planting, control 10.8): 157 parts per million
copper in plant tissue, CHANGE (Wheat [6]; treated minus control 10.8): 146.2 parts per million

EDTA [reference compound]
copper in tissue, TREATED (pepper plants; soil applied with 15-30-15, tissue 30 days after treatment, control 8.0): 12.9
TREATED (dry weight) (pepper plants; soil applied, control 4.8): 6.2
TREATED DRY (pepper plants; soil applied, dry weight, CONTROL DRY 4.8): 6.1
copper in tissue, TREATED ADJUSTED (pepper plants; soil applied, tissue level times dry weight, control adjusted 38.08): 80.03
copper in tissue, CHANGE IN (adjusted) (pepper plants; soil applied, treated adjusted minus control adjusted 38.08): 41.95
CHANGE IN WEIGHT (pepper plants; soil applied, treated dry minus control dry 4.8): 1.36
copper in tissue, % CHANGE (adjusted) (pepper plants; soil applied, versus control adjusted 38.08): 110%
% CHANGE (dry weight) (pepper plants; soil applied, versus control dry 4.8): 29%

IRON
iron in plant tissue, TREATED (Soybean; harvested 30 days after planting, control 111): 557 parts per million
iron in plant tissue, CHANGE (Soybean; treated minus control 111): 446 parts per million
iron in plant tissue, % change (Soybean; versus control 111): 402%
iron in plant tissue, TREATED (Clover [1]; harvested 30 days after planting, control 130): 731 parts per million
iron in plant tissue, CHANGE (Clover [1]; treated minus control 130): 601 parts per million
iron in plant tissue, TREATED (Corn [2]; harvested 30 days after planting, control 36.9): 494 parts per million
iron in plant tissue, CHANGE (Corn [2]; treated minus control 36.9): 457.1 parts per million
iron in plant tissue, % change (Corn [2]; versus control 36.9): 1239%
iron in plant tissue, TREATED (Clover [3]; soil applied with 10-34-0, harvested 30 days after planting, control 143): 224
iron in plant tissue, CHANGE (Clover [3]; soil applied, treated minus control 143): 81
iron in plant tissue, % change (Clover [3]; soil applied, versus control 143): 57%
iron in plant tissue, TREATED (Corn [4]; soil applied with 10-34-0, harvested 30 days after planting, control 45.4): 82.2
iron in plant tissue, CHANGE (Corn [4]; soil applied, treated minus control 45.4): 36.8
iron in plant tissue, % (Corn [4]; soil applied, versus control 45.4): 81%
iron in plant tissue, TREATED (Wheat [5]; soil applied with 10-34-0, harvested 30 days after planting, control 79.3): 90.9
iron in plant tissue, CHANGE (Wheat [5]; soil applied, treated minus control 79.3): 11.6
iron in plant tissue, % change (Wheat [5]; soil applied, versus control 79.3): 15%
iron in plant tissue, TREATED (Wheat [6]; harvested 30 days after planting, control 94.5): 334 parts per million
iron in plant tissue, CHANGE (Wheat [6]; treated minus control 94.5): 239.5 parts per million
